Where a name gives a salt, the structure may show the parent alone.

The subject of one assay is M. tuberculosis H37Rv. In words: MIC determination by microbroth dilution, anti-tuberculosis activity. In kind it is cell-based, Mycobacterium tuberculosis. The settings on record: Mycobacterium tuberculosis, H37RV, 168 h; read-out: MIC.
Assay [1] has as its system S. aureus 8325 or strain ATCC 29213. The experiment in a line: MIC determination by microbroth dilution. It is filed as cell-based, Staphylococcus aureus. As to conditions: Staphylococcus aureus, ATCC29213; S. aureus 8325 or strain ATCC 29213 (for 1471-1544). A general note: In broth dilution the organism is exposed to a series of concentrations in liquid medium.
Assay [2] deals with Strep. pyogenes ATCC 700294. In words: MIC determination by microbroth dilution. In kind it is cell-based, Streptococcus pyogenes. As to conditions: Streptococcus pyogenes, ATCC700294, read-out: MIC S. pyogenes.
For assay [3], the system named is Strep. pneumoniae DAW27 or strain R6. The experiment in a line: MIC determination by microbroth dilution. In kind it is cell-based, Streptococcus pneumoniae. The settings on record: Streptococcus pneumoniae; Strep. pneumoniae DAW27 or strain R6 (for 1443-1544); read-out: MIC S. pneumoniae.
Another assay deals with E. faecalis ATCC 33186. In words: MIC determination by microbroth dilution. It is filed as cell-based, Enterococcus faecalis. As to conditions: Enterococcus faecalis, ATCC33186.
For another assay, the system named is B. anthracis Sterne 34F2. In words: microbe, parasite or virus in culture. In kind it is cell-based, Bacillus anthracis. The settings on record: Bacillus anthracis, STERNE34F2, read-out: MIC B. anthracis 34F2.
The test system of assay [4] is Burkholderia cepacia ATCC 25416. In words: MIC determination by microbroth dilution. The settings on record: ATCC25416, read-out: MIC B. cepcia. It is filed as cell-based.
Assay [5] deals with Proteus mirabilis ATCC 25933. In words: MIC determination by microbroth dilution. In kind it is cell-based. The settings on record: ATCC25933.
Assay [6] relates to Proteus vulgaris ATCC 33420. The experiment in a line: MIC determination by microbroth dilution. In kind it is cell-based. As to conditions: ATCC33420.
Assay [7] relates to Klebsiella pneumoniae ATCC 33495. In words: MIC determination by microbroth dilution. In kind it is cell-based. As to conditions: ATCC33495.
In assay [8] the test system is Acinetobacter baumannii ATCC 19606. The experiment in a line: MIC determination by microbroth dilution. In kind it is cell-based. As to conditions: ATCC19606.
For a further assay, the system named is P. aeruginosa PAO1. In words: MIC determination by microbroth dilution. The settings on record: Pseudomonas aeruginosa. In kind it is cell-based, Pseudomonas aeruginosa.
The subject of assay [9] is Strenotrophomonas maltophilia ATCC 13637. In words: MIC determination by microbroth dilution. In kind it is cell-based.
Another assay has as its system E. coli K12. In words: MIC determination by microbroth dilution. It is filed as cell-based, Escherichia coli. The settings on record: Escherichia coli, K12.
Another assay relates to E. coli K12 ΔtolC. In words: microbe, parasite or virus in culture. The settings on record: Escherichia coli, read-out: MIC E. coli K12 ΔtolC. It is filed as cell-based.
For another assay, the system named is E. coli ribosomes. In kind it is biochemical. As to conditions: for IC50, 50% inhibition of luciferase biosynthesis in S30 assay: E. coli S30 transcription/translation assay; for relative inhibitory activity on luciferase production: tested at 0.66 and 6.6 μM, FIG. 5.

Take `CN[C@@H]1[C@H](O)[C@H](NC)C2O[C@]3(O)C(OC2[C@H]1O)O[C@H](C)C[C@H]3NC(=O)Cc1cscn1` (stereo partly drawn) [Compound 1443, 3′-Dihydro-3′-deoxy-4(R)-(thiazol-4-yl)acetylamino spectinomycin trihydrobromide]: the MIC in the assay on M. tuberculosis H37Rv is 1.6 µg/mL; in assay [1], 50 µg/mL; in assay [2], 6.25 µg/mL; in [3] it was 12.5 µg/mL; against E. faecalis ATCC 33186 it was 50 µg/mL; in the assay with B. anthracis Sterne 34F2 it was 1.6 µg/mL. In addition, the MIC in [4] is more than 200 µg/mL; in assay [5], more than 200 µg/mL; in [6], more than 200 µg/mL; in [7], 100 µg/mL; in assay [8], more than 200 µg/mL; with P. aeruginosa PAO1 it was more than 200 µg/mL. The MIC in assay [9] was more than 200 µg/mL; in the assay with E. coli K12, 100 µg/mL; in the assay with E. coli K12 ΔtolC, 200 µg/mL. In the assay with E. coli ribosomes, the “IC50, 50% inhibition of luciferase biosynthesis in S30 assay” value (shortened to “IC50, 50% inhibition”) is 0.29 µg/mL.
`CN[C@@H]1[C@H](O)[C@H](NC)C2O[C@]3(O)C(OC2[C@H]1O)O[C@H](C)C[C@H]3NC(=O)CNC(C)(C)C` (stereo partly drawn) [Compound 1351, 3′-Dihydro-3′-deoxy-4(R)-(tert-butylamino)-acetylamino spectinomycin Dihydrochloride]: the MIC was 25 µg/mL with M. tuberculosis H37Rv; 200 µg/mL in assay [1]; 100 µg/mL in assay [2]; 200 µg/mL in [3]; more than 200 µg/mL in the assay with E. faecalis ATCC 33186; 50 µg/mL with B. anthracis Sterne 34F2. In addition, the MIC in assay [4] was more than 200 µg/mL; in assay [5], more than 200 µg/mL; in assay [6], more than 200 µg/mL; in assay [7], 200 µg/mL; in assay [8], more than 200 µg/mL; against P. aeruginosa PAO1, 200 µg/mL. Further, the figures for the MIC (in [9]; with E. coli K12; in the assay on E. coli K12 ΔtolC) were 50 µg/mL, more than 200 µg/mL and 50 µg/mL, respectively. Further, the “IC50, 50% inhibition” value in the assay with E. coli ribosomes stood at 0.22 µg/mL. Besides, the “relative inhibitory activity on luciferase production” value (shortened to “relative inhibitory activity”) in the assay with E. coli ribosomes was “next most active”.
For the molecule `CN[C@@H]1[C@H](O)[C@H](NC)C2O[C@]3(O)C(OC2[C@H]1O)O[C@H](C)C[C@H]3NC(=O)Cc1ccc(F)cc1` (stereo partly drawn) [Compound 1367, 3′-Dihydro-3′-deoxy-4(R)-(4-fluoro-phenyl)-acetylamino spectinomycin Dihydrochloride], the MIC in the assay on M. tuberculosis H37Rv turned out to be 3.1 µg/mL; in [1] it was 50 µg/mL; in assay [2], 50 µg/mL; in assay [3], 50 µg/mL; in the assay on E. faecalis ATCC 33186, 200 µg/mL; in the assay on B. anthracis Sterne 34F2 it was 50 µg/mL. The MIC is more than 200 µg/mL in assay [4]; more than 200 µg/mL in assay [5]; more than 200 µg/mL in assay [6]; more than 200 µg/mL in [7]; more than 200 µg/mL in assay [8]; 100 µg/mL against P. aeruginosa PAO1. Further, the values for the MIC (in assay [9]; in the assay on E. coli K12; in the assay with E. coli K12 ΔtolC) were more than 200 µg/mL, 200 µg/mL and 50 µg/mL, respectively. For the same molecule, the “IC50, 50% inhibition” value with E. coli ribosomes is 1.05 µg/mL.
Consider `CN[C@@H]1[C@H](O)[C@H](NC)C2O[C@]3(O)C(OC2[C@H]1O)O[C@H](C)C[C@H]3NC(=O)CCc1cccnc1` (stereo partly drawn) [Compound 1299, 3′-Dihydro-3′-deoxy-4(R)-(3-pyridin-3-yl)propionylamino spectinomycin Dihydrochloride], for which the MIC with M. tuberculosis H37Rv is 25 µg/mL; in assay [1] it was 200 µg/mL; in assay [2] it was 200 µg/mL; in assay [3], 200 µg/mL; against E. faecalis ATCC 33186, more than 200 µg/mL; in the assay on B. anthracis Sterne 34F2, 200 µg/mL. Moreover, the MIC (in [4]; in assay [5]; in assay [6]; in [7]; in assay [8]; in the assay on P. aeruginosa PAO1) was more than 200 µg/mL throughout. Also, the MIC in [9] was more than 200 µg/mL; against E. coli K12, more than 200 µg/mL; with E. coli K12 ΔtolC, 200 µg/mL. In addition, in the assay on E. coli ribosomes, the “IC50, 50% inhibition” value stood at 0.97 µg/mL.
For `CN[C@@H]1[C@H](O)[C@H](NC)C2O[C@]3(O)C(OC2[C@H]1O)O[C@H](C)C[C@H]3NC(=O)c1ccc(F)cc1` (stereo partly drawn) [Compound 1364, 3′-Dihydro-3′-deoxy-4(R)-4-fluorobenzoylamino spectinomycin Dihydrochloride], the MIC with M. tuberculosis H37Rv is 50 µg/mL; in assay [1], more than 200 µg/mL; in assay [2], 100 µg/mL; in [3] it was more than 200 µg/mL; in the assay on E. faecalis ATCC 33186, more than 200 µg/mL; with B. anthracis Sterne 34F2 it was 200 µg/mL. Further, the MIC (in assay [4]; in [5]; in assay [6]; in assay [7]; in [8]; with P. aeruginosa PAO1) was more than 200 µg/mL throughout. Besides, the values for the MIC (in [9]; in the assay on E. coli K12; in the assay on E. coli K12 ΔtolC) were more than 200 µg/mL, more than 200 µg/mL and 100 µg/mL, respectively. In addition, in the assay on E. coli ribosomes, the “relative inhibitory activity” value is “less active than 1329”.
For the molecule `CN[C@@H]1[C@H](O)[C@H](NC)C2O[C@]3(O)C(OC2[C@H]1O)O[C@H](C)C[C@H]3NC(=O)Cc1ccccc1` (stereo partly drawn) [Compound 1398, 3′-Dihydro-3′-deoxy-4(R)-phenylacetylamino spectinomycin Dihydrochloride], the MIC was 6.1 µg/mL with M. tuberculosis H37Rv; 100 µg/mL in [1]; 50 µg/mL in assay [2]; 100 µg/mL in assay [3]; more than 200 µg/mL against E. faecalis ATCC 33186; 100 µg/mL in the assay with B. anthracis Sterne 34F2. Further, the MIC was more than 200 µg/mL in assay [4]; more than 200 µg/mL in [5]; more than 200 µg/mL in assay [6]; more than 200 µg/mL in [7]; more than 200 µg/mL in assay [8]; 100 µg/mL in the assay with P. aeruginosa PAO1. Also, the MIC in [9] was more than 200 µg/mL; in the assay with E. coli K12, more than 200 µg/mL; in the assay with E. coli K12 ΔtolC it was 200 µg/mL. Moreover, the “IC50, 50% inhibition” value with E. coli ribosomes stood at 0.78 µg/mL.
For the molecule `CN[C@@H]1[C@H](O)[C@H](NC)C2O[C@]3(O)C(OC2[C@H]1O)O[C@H](C)C[C@H]3NCc1ccc(F)cc1` (stereo partly drawn) [Compound 1424, 3′-Dihydro-3′-deoxy-4(R)-4-fluoro)benzylamino spectinomycin Trihydrochloride], the MIC with M. tuberculosis H37Rv came to 200 µg/mL; in assay [1], 50 µg/mL; in assay [2], 50 µg/mL; in assay [3] it was 25 µg/mL; in the assay on E. faecalis ATCC 33186 it was 100 µg/mL; in the assay on B. anthracis Sterne 34F2, 100 µg/mL. The MIC in assay [4] is more than 200 µg/mL; in [5], more than 200 µg/mL; in assay [6], more than 200 µg/mL; in [7], more than 200 µg/mL; in assay [8], more than 200 µg/mL; against P. aeruginosa PAO1 it was 200 µg/mL. The values for the MIC (in assay [9]; in the assay with E. coli K12; with E. coli K12 ΔtolC) were more than 200 µg/mL, 200 µg/mL and 50 µg/mL, respectively. Also, the “IC50, 50% inhibition” value with E. coli ribosomes worked out at 0.80 µg/mL. Besides, the “relative inhibitory activity” value with E. coli ribosomes is given as “inhibited well”.
Regarding `CN[C@@H]1[C@H](O)[C@H](NC)C2O[C@]3(O)C(OC2[C@H]1O)O[C@H](C)C[C@H]3NC(=O)Cc1ccc([N+](=O)[O-])cn1` (stereo partly drawn) [Compound 1490, 3′-Dihydro-3′-deoxy-4(R)-(5-nitropyridin-2-yl)acetylamino spectinomycin trihydrobromide], the MIC with M. tuberculosis H37Rv was 6.25 µg/mL; in assay [1] it was 100 µg/mL; in assay [2], 12.5 µg/mL; in assay [3] it was 12.5 µg/mL; against E. faecalis ATCC 33186, 50 µg/mL; with B. anthracis Sterne 34F2, more than 200 µg/mL. Further, the MIC (in [4]; in [5]; in [6]; in [7]; in assay [8]; in the assay on P. aeruginosa PAO1) was more than 200 µg/mL throughout. In addition, the results for the MIC (in [9]; with E. coli K12; in the assay on E. coli K12 ΔtolC) were more than 200 µg/mL, 200 µg/mL and 12.5 µg/mL, respectively.

For the origin of these results see patent US9284325B2, “Spectinamides as anti-tuberculosis agents” (UNIVERSITY OF TENNESSEE RESEARCH FOUNDATION, priority 2009, dated 2016).
